Several values for one entry are separate records, joined by “and”; a condition that tells them apart may be missing. Identical values can stand only once.
Assays:
[1] = test system: dasatinib-resistant p185BCR-ABL Arf–/– pre-B-ALL cells; test: Apoptosis assay, Annexin V and PI staining; format: cell-based, mouse; conditions: 350 nM 3-AP, 100 nM VE-822, 1 µM dCKi, 72 h
Method: Apoptosis and cell death were assayed using Annexin V-FITC and PI according to manufacturer’s instructions (FITC Annexin V Apoptosis Detection Kit, BD Sciences, #556570). […]
Annexin V staining. Cells were treated with the indicated treatments for 24 or 72 h, then collected and washed twice with 1 mL of FACS buffer (2% FBS in PBS). Induction of apoptosis and cell death were assayed by staining the cells with Annexin V-FITC and PI according to manufacturer’s instructions (FITC Annexin V Apoptosis Detection Kit, BD Sciences, #556570).
FACS analysis. All flow cytometry data were acquired on five-laser LSRII cytometers (BD) for analysis, and analyzed using FlowJo software (Tree Star). […]

CEM cells = test: Targeted LC-MS/MS-MRM of de novo and salvage dCTP biosynthesis (nucleotide pools and newly replicated DNA); format: cell-based, human
Method: Cells were transferred into RPMI-1640 without glucose and supplemented with 10% dialyzed FBS (Gibco) containing the following labeled substrates: precursors for de novo [U-^13C6]glucose (Sigma-Aldrich, 389374) at 11 mM; precursors for purine salvage [U-^13C10,^15N5]dA (Cambridge Isotopes, CIL 3896), [^15N5]dA (Cambridge Isotopes, NLM-3895) and [^15N5]dG (Cambridge Isotopes, NLM-3899) at 5 µM or as indicated; and precursors for pyrimidine salvage: [U-^13C9,^15N3]dC (Silantes, 124603602) and [U-^13C10,^15N2]dT (Cambridge Isotopes, CNLM-3902) at 5 µM and [^15N2]orotate (Cambridge Isotopes, NLM-1048) at indicated concentrations. The cells were incubated for 12 h or as indicated before sample collection and processing.
The rates of dCTP incorporation into the DNA were determined using linear regression with procedure GLM in SAS (v. 9.4). DNA % label was transformed using a shifted log addition of 1 due to the presence of zeros in the data set. Rates were calculated using the slope of the regression line for the log transformed data and are presented in the table with the associated standard errors, along with the ratio between the rate of incorporation into DNA by the de novo and salvage pathways (Table 1).
Cell cycle synchronization. Cells were treated with a CDK4/6 inhibitor, Pablociclib or PD-0332991 (Selleckchem, S1116) for 18 h to synchronize them in the G1 phase. Subsequently, cells were washed twice with PBS containing 2% FBS (Omega Scientific) and released into fresh media. […]
Clinical Microarray Core on an Illumina HiSeq3000 using the SeqCap EZ Exome Enrichment Kit v3.0 (Roche).
Reads were mapped to UCSC hg19 (bwa-mem), deduplicaed (PicardTools), and subjected to base quality score recalibration and realignment around known indels according to the Broad Institute Genome Analysis Toolkit (GATK) Best Practices v3.0. Variants in genes associated with nucleotide biosynthesis were identified using the GATK HaplotypeCaller, and annotated with Oncotator (http://portals.broadinstitute.org/oncotator/). dNTP sample processing. 0.5 – 1 x 10^6 cells were collected into 1.5 mL microcentrifuge tubes and centrifuged (450 x g, 4 min, 4 °C). The supernatant was carefully aspirated and the cells were washed twice with 1 mL of cold PBS, followed each time by centrifugation (450 x g, 4 min 4 °C). The PBS were aspirated.
Thereafter, the pellets were treated with 10 µL of 10% trifluoroacetic acid with internal standards (1 µM […]
s, and incubated on ice for 10 min. 40 µL of 500 mM ammonium acetate, pH = 9.3, with the same internal standard (1 µM [15N3]dCMP and [15N3]dCTP) was then added and the samples were vigorously vortexed again for 30 s. The samples were centrifuged (14,000 x g, 10 min, 4 °C) to remove cell debris. The supernatants (~ 40 µL) were transferred into HPLC injector vials. Stock solutions (10 mM) of rCTP, rCDP, dCMP, dCDP, and dCTP (Sigma Aldrich) were prepared individually in water, and stored at –20 °C before use to generate calibration standards. Calibration standards were prepared and mixed together in water with internal standards (1 µM [15N3]dCMP and [15N3]dCTP) to make working stock concentrations in 100 nM – 100 µM range.
Calibration standards were diluted 10-fold into the same nucleotide extraction solution of 10% TFA/500 mM ammonium acetate (1:4, v/v) with internal standards (1 µM [15N3]dCMP and [15N3]dCTP) to give a final concentration in 10 nM – 10 µM. Nucleotide and calibration samples were processed together to minimize […]
DNA sample processing. Genomic DNA from 0.5 – 1 x 10^4 cells was extracted using the Quick-gDNA MiniPrep kit (Zymo Research, D3021) and hydrolyzed to nucleosides using the DNA Degradase Plus kit (Zymo Research, E2021), following manufacturer-supplied instructions. In the final step of DNA extraction, 50 µL of […]
water was used to elute the DNA into 1.5 mL microcentrifuge tubes. A nuclease solution (5 µL; 10X buffer/DNA Degradase Plus™/water, 2.5/1/1.5, v/v/v) was added to 20 µL of the eluted genomic DNA in an HPLC injector […]
vial. […]

[2] = CEM 12 h, 1 uM VE-822, 1 uM DI-82, 500 nM 3-AP, #1-#3

## NC(=S)N/N=C/c1ncccc1N [3-AP]
[1]; cells harvested from bone marrow of a treated leukemic mouse
  Annexin V+ cells (apoptosis induction): 22.0%
[1]; cells prior to inoculation in mice
  Annexin V+ cells (apoptosis induction): 32.6%
CEM cells; [2]
  % sum abundance, de novo DNA-C, mass increase in nucleobase +0, in deoxyribose +3: 0.0554% and 0.0456% and 0.04%
  % sum abundance, de novo DNA-C, mass increase in nucleobase +0, in deoxyribose +4: 0.02% and 0.0358% and 0.0465%
  % sum abundance, de novo DNA-C, mass increase in nucleobase +0, in deoxyribose +5: 0.55% and 0.53% and 0.50%
  % sum abundance, de novo DNA-C, mass increase in nucleobase +1, in deoxyribose +3: 0.00%
  % sum abundance, de novo DNA-C, mass increase in nucleobase +1, in deoxyribose +4: 0.00%
  % sum abundance, de novo DNA-C, mass increase in nucleobase +1, in deoxyribose +5: 0.07% and 0.0542% and 0.0459%
  % sum abundance, de novo DNA-C, mass increase in nucleobase +2, in deoxyribose +4: 0.00%
  % sum abundance, de novo DNA-C, mass increase in nucleobase +2, in deoxyribose +5: 0.0465% and 0.04% and 0.032%
  % sum abundance, de novo DNA-C, mass increase in nucleobase +3, in deoxyribose +4: 0.00%
  % sum abundance, de novo DNA-C, mass increase in nucleobase +3, in deoxyribose +5: 0.00%
  % sum abundance, de novo DNA-C, mass increase in nucleobase +4, in deoxyribose +4: 0.00%
  % sum abundance, de novo DNA-C, mass increase in nucleobase +4, in deoxyribose +5: 0.00%
  % sum abundance, salvage DNA-C, mass increase in nucleobase +5, in deoxyribose +0: 0.00%
  % sum abundance, salvage DNA-C, mass increase in nucleobase +5, in deoxyribose +4: 0.00%
  % sum abundance, salvage DNA-C, mass increase in nucleobase +5, in deoxyribose +5: 0.00%
  % sum abundance, salvage DNA-C, mass increase in nucleobase +6, in deoxyribose +0: 0.00%
  % sum abundance, salvage DNA-C, mass increase in nucleobase +6, in deoxyribose +4: 0.00%
  % sum abundance, salvage DNA-C, mass increase in nucleobase +6, in deoxyribose +5: 0.39% and 0.40%
  % sum abundance, salvage DNA-C, mass increase in nucleobase +7, in deoxyribose +0: 0.00%
  % sum abundance, salvage DNA-C, mass increase in nucleobase +7, in deoxyribose +4: 0.23% and 0.25%
  % sum abundance, salvage DNA-C, mass increase in nucleobase +7, in deoxyribose +5: 4.69% and 4.96% and 4.68%
  % sum abundance, unlabeled DNA-C, mass increase in nucleobase +0, in deoxyribose +0: 83.63% and 83.39% and 83.92%
  % sum abundance, unlabeled DNA-C, mass increase in nucleobase +0, in deoxyribose +1: 4.68% and 4.72% and 4.61%
  % sum abundance, unlabeled DNA-C, mass increase in nucleobase +0, in deoxyribose +2: 0.67% and 0.60% and 0.58%
  % sum abundance, unlabeled DNA-C, mass increase in nucleobase +1, in deoxyribose +0: 4.40% and 4.42% and 4.39%
  % sum abundance, unlabeled DNA-C, mass increase in nucleobase +1, in deoxyribose +1: 0.26%
  % sum abundance, unlabeled DNA-C, mass increase in nucleobase +1, in deoxyribose +2: 0.00%
  % sum abundance, unlabeled DNA-C, mass increase in nucleobase +2, in deoxyribose +0: 0.31% and 0.29% and 0.26%
  % sum abundance, unlabeled DNA-C, mass increase in nucleobase +2, in deoxyribose +1: 0.00%
  % sum abundance, unlabeled DNA-C, mass increase in nucleobase +2, in deoxyribose +2: 0.00%
  % sum abundance, unlabeled DNA-C, mass increase in nucleobase +3, in deoxyribose +0: 0.00%
  % sum abundance, unlabeled DNA-C, mass increase in nucleobase +3, in deoxyribose +1: 0.00%
  % sum abundance, unlabeled DNA-C, mass increase in nucleobase +4, in deoxyribose +0: 0.00%
CEM cells; CEM, 500 nM 3-AP, 12 h
  increase of incorporation of salvage-produced dCTP into DNA: > 1.5 fold
  rCTP and rCDP pools: doubled
  reduction in the incorporation of de novo produced dCTP into DNA: ~ 19 fold
  salvage dC nucleotide pools: doubled
CEM cells; asynchronous CEM, 12 h
  increase of salvage contributions to the dCMP, dCDP and dCTP pools: approximately twofold
